Test results from patent publication US9446019B2, “Sparstolonin B based pharmaceutical agent for neuroblastoma treatment” (University of South Carolina, priority 2013, dated 2016).

What was measured:
[1] = system: SH-SY5Y and SK-N-BE(2) cells; assay: Hanging-drop assay for spheroid formation; format: cell-based, human; conditions: day 12
Procedure: 3-D in vitro hanging drop assay was carried out to detect the SsnB effect in neuroblastoma spheroid formation. Neuroblastoma cells were prepared as single cell suspension in complete culture medium (DMEM+10% FBS) without or with SsnB (1 and 10 μM). Twenty microliter drops of each prepared cell suspension containing 20,000 cells/drop were pipetted into the inner side of the lid of a 60 mm diameter tissue culture dish. The lid was gently inverted and placed on top of the culture dish filled with 5 ml of sterile 1×PBS to humidify the culture chamber. The drops were incubated under tissue culture conditions (at 37° C. and 5% CO2) allowing the cells to form aggregate at the base of the droplet. The cells in each droplet were photographed using Olympus SZX2 stereo microscope (Olympus America Inc., Center Valley, Pa.).
As SsnB inhibited the formation of neuroblastoma colony in anchorage-independent agarose gel assay, the ability of SsnB to inhibit the initiation of neuroblastoma tumors was tested in a hanging drop assay method. In the hanging drop assay the cells under the force of gravity and surface tension start accumulating at the bottom of the hanging drop and join together to form a spheroid. […]

[2] = system: normal human cells (THP-1 cells, PMA-differentiated THP-1 macrophages, human umbilical vein endothelial cells, human aortic smooth muscle cells); assay: Cytotoxic response in normal human cells; format: cell-based; conditions: 1-20 μM and up to about 100 μM
[3] = system: caspase-3 in neuroblastoma cells; assay: Cleaved caspase-3 by immunofluorescence and Western blotting; format: cell-based, human
Procedure: For immunofluorescence staining, cells grown in Lab-TekII chamber slides (Fisher Scientific, Pittsburgh, Pa.) were treated with SsnB in complete culture medium. After treatments, cells were washed with 1×PBS, fixed with 4% paraformaldehyde/PBS for 20 min, and permeabilized with 0.2% Triton X-100/PBS for 10 min at room temperature. Cells were washed with 1×PBS for 3 times and blocked with 5% immunoglobulin (IgG) free-bovine serum albumin (BSA; Jackson ImmunoResearch Laboratories, West Grove, Pa.) in 1×PBS for overnight at 4° C. Cells were incubated with antibody raised against active form of caspase-3 (Cell Signaling Technology, Danvers, Mass.) diluted in 2.5% BSA/PBS for overnight at 4° C. Primary antibodies were detected with secondary antibodies conjugated with fluorescein isothiocyanate (FITC; Santa Cruz Biotechnology, Dallas, Tex.) for 2 h at room temperature. After washing with 1×PBS, cells were mounted with antifade Vectashield mounting media (Vector Laboratories, Burlingame, Calif.), and signals were visualized under Nikon-E600 fluorescence microscope. Nuclei were counterstained with 4′,6-diamidino-2-phenylindole (DAPI; Sigma).
After treatment with SsnB, cells were collected, washed with 1×PBS, and lysed with 1× cell lysis buffer (Cell Signaling Technology, Danvers, Mass.) containing phenylmethylsulfonyl fluoride (PMSF) and protease inhibitors (aprotinin and leupeptin) for 30 min on ice, and centrifuged at 12000×rpm for 10 min at 4° C. Supernatant (total cell protein) was collected and stored at −80° C. Protein concentration was determined by bicinchoninic acid method using BCA protein assay kit (Pierce/ThermoScientific, Waltham, Mass.). Equal amount of proteins were diluted with 5× Laemmli samples loading buffer and boiled for five minutes. The proteins were subjected to sodium dodecyl sulfate (SDS)-polyacrylamide gel electrophoresis and analyzed by Western blots. Briefly, after electrophoresis, proteins were transferred on polyvinylidene difluoride (PVDF) membrane at 100 volt for 3 h in cold room. Membrane was blocked with 5% non-fat dry milk/TBST (20 mM Tris-Cl, pH 7.4; 150 mM NaCl with 0.1% Tween-20) for 4 h at room temperature followed by incubation in primary antibodies diluted in 2.5% non-fat dry milk/TBST for overnight at 4° C. After washing with TBST, membrane was incubated with secondary antibodies (horseradish peroxidase-conjugated goat anti-rabbit or goat anti-mouse IgG; Santa Cruz Biotechnology, Dallas, Tex.) diluted in 2.5% non-fat dry milk/TBST for 3 h at room temperature. Signals were detected by chemiluminiscence detection kit (Pierce/Thermo Fisher Scientific, Rockford, Ill.). Primary antibodies used were cleaved caspase-3 and β-actin (Cell Signaling Technology), N-myc and p53 (Santa Cruz Biotechnology).
At cellular level, mitochondria- or receptor (Fas/FasL)-mediated pathways activate caspase signaling cascade which in turn induces DNA damage and initiates programmed cell death (apoptosis). To determine whether SsnB-induced cell death is mediated by caspase activation, Western blotting as well as immunofluorescence assay were performed to detect the active form of caspase-3 in neuroblastoma cells treated with SsnB for 2 days (SH-SY5Y and IMR-32 cells), 3 days (NGP cells) or 4 days (SKNF-1 and SK-N-BE(2) cells). The number of cleaved caspase-3 positive cells were quantitated by ImageJ programme and plotted. […]

[4] = system: human neuroblastoma cell lines (SH-SY5Y, SKNF-1, NGP, IMR-32 and SK-N-BE(2) cells); assay: Cell morphology by phase contrast microscopy; format: cell-based
Text: Human neuroblastoma cell lines (SH-SY5Y, IMR-32, SK-N-BE(2) and SKNF-1 cells) were obtained from The American Type Culture Collection (ATCC; Manassas, Va.), and NGP cells were kind gift from Garrett M. Brodeur (The Children's Hospital of Philadelphia, Philadelphia, Pa.). All cell lines were maintained in complete Dulbecco's Modified Eagle's Medium (DMEM) supplemented with 10% fetal bovine serum (FBS; Atlanta Biologicals, Lawrenceville, Ga.) and 1× antibiotic-antimycotic solution (containing 100 U/ml penicillin, 100 μg/ml streptomycin and 0.25 μg/ml amphotericin B), and grown at 37° C. in a humidified incubator with 5% CO2. Stock solution of SsnB was prepared in dimethyl sulfoxide (DMSO). Cells treated with different concentrations of SsnB in DMEM with 10% FBS were grown for subsequent days. Cells treated with equal volume of DMSO were used as control.
To test the inhibitory effects of SsnB on neuroblastoma cell survival, human neuroblastoma cell lines of different genetic background (SH-SY5Y, SKNF-1, NGP, IMR-32 and SK-N-BE(2) cells) were treated with 1 μM, 5 μM, 10 μM or 20 μM concentration of SsnB under in vitro conditions. Following SsnB treatments, neuroblastoma cell were grown and were photographed under light microscope to evaluate the cell morphology.

Question: How did the spheroid formation ([1]; SsnB 1 μM) turn out when `O=c1occ2c3c(ccc(O)c13)Oc1ccc(O)cc1-2` [SsnB, 8,5′-dihydroxy-4-phenyl-5,2′-oxidoisocoumarin] was run?
Answer: The spheroid formation was “compact cell clusters were formed”.

Question: And the spheroid formation ([1]; SsnB 10 μM)?
Answer: Its spheroid formation is “unable to aggregate to form compact spheroids”.

Question: And the cytotoxic response [2]?
Answer: Its cytotoxic response is “No cytotoxic response”.

Question: What about the “cleaved caspase-3 level, Western blot” value ([3]; SsnB 1 μM, nonsignificant vs control) of the same compound?
Answer: The value was “almost undetectable levels”.

Question: What about the “cleaved caspase-3 protein bands (17 and 19 kDa), Western blot” value ([3]; SsnB 10 μM) of the same compound?
Answer: The value was “present”.

Question: And the “cleaved caspase-3 positive cells (immunofluorescence)” value ([3]; SsnB 10 μM vs DMSO or SsnB 1 μM)?
Answer: The value was “significantly increased”.

Question: And the “exposure time at which caspase-3 cleavage is seen” value ([3]; SsnB 10 μM, SH-SY5Y cells, time points 6, 12, 24, 48 h)?
Answer: The value was no more than 6 h.

Question: What about the “cell morphology (rounded cells, indication of cell death) vs DMSO” value ([4]; SsnB 10 μM and above, 2, 3 or 4 days depending on line) of the same compound?
Answer: The value was “changed the morphology”.

Question: And the morphological changes ([4]; SsnB 1 or 5 μM, any cell line tested)?
Answer: The morphological changes was “not significant”.
